The structures appear in SMILES notation.

The test concerns HCV 1b-Con1 replicon. The experiment in a line: HCV 1b-Con1 replicon assay in the presence of 5% FBS. Particulars: Hepatitis C virus. The class given is cell-based. For orientation: A replicon is a self-replicating genome or part of one, used to study replication in cells.

As for `COC(=O)N[C@H](C(=O)N1CCC[C@H]1c1nc2cc([C@H]3CC[C@H](c4ccc5[nH]c([C@@H]6CCCN6C(=O)[C@@H](NC(=O)OC)C(C)C)nc5c4)N3c3cc(F)c(N4CCC(c5cccc([Si](C)(C)C)c5)CC4)c(F)c3)ccc2[nH]1)C(C)C` [Example 3.43, methyl {(2S)-1-[(2S)-2-{5-[(2R,5R)-1-(3,5-difluoro-4-{4-[3-(trimethylsilyl)phenyl]piperidin-1-yl}phenyl)-5-{2-[(2S)-1-{(2S)-2-[(methoxycarbonyl)amino]-3-methylbutanoyl}pyrrolidin-2-yl]-1H-benzimidazol-5-yl}pyrrolidin-2-yl]-1H-benzimidazol-2-yl}pyrrolidin-1-yl]-3-methyl-1-oxobutan-2-yl}carbamate], the EC50 (commonly the concentration at which the effect is half-maximal) is less than 0.1 nM.
As for `COC(=O)N[C@H](C(=O)N1CCC[C@H]1c1nc2cc([C@H]3CC[C@H](c4ccc5[nH]c([C@@H]6CCCN6C(=O)[C@@H](NC(=O)OC)C(C)C)nc5c4)N3c3cc(F)c(N4CCC(c5ccc(F)c(F)c5)CC4)c(F)c3)ccc2[nH]1)C(C)C` [Example 3.44, methyl {(2S)-1-[(2S)-2-{5-[(2R,5R)-1-{4-[4-(3,4-difluorophenyl)piperidin-1-yl]-3,5-difluorophenyl}-5-{2-[(2S)-1-{(2S)-2-[(methoxycarbonyl)amino]-3-methylbutanoyl}pyrrolidin-2-yl]-1H-benzimidazol-5-yl}pyrrolidin-2-yl]-1H-benzimidazol-2-yl}pyrrolidin-1-yl]-3-methyl-1-oxobutan-2-yl}carbamate], the figure is less than 0.1 nM.
Turning to `COC(=O)N[C@H](C(=O)N1CCC[C@H]1c1nc2cc([C@H]3CC[C@H](c4ccc5[nH]c([C@@H]6CCCN6C(=O)[C@@H](NC(=O)OC)C(C)C)nc5c4)N3c3cc(F)c(N4CCC(c5cc(F)cc(F)c5)CC4)c(F)c3)ccc2[nH]1)C(C)C` [Example 3.45, methyl {(2S)-1-[(2S)-2-{5-[(2R,5R)-1-{4-[4-(3,5-difluorophenyl)piperidin-1-yl]-3,5-difluorophenyl}-5-{2-[(2S)-1-{(2S)-2-[(methoxycarbonyl)amino]-3-methylbutanoyl}pyrrolidin-2-yl]-1H-benzimidazol-5-yl}pyrrolidin-2-yl]-1H-benzimidazol-2-yl}pyrrolidin-1-yl]-3-methyl-1-oxobutan-2-yl}carbamate], the 50% effective concentration (EC50) is less than 0.1 nM.
The value for `COC(=O)N[C@H](C(=O)N1CCC[C@H]1c1nc2cc([C@H]3CC[C@@H](c4cc5nc([C@@H]6CCCN6C(=O)[C@@H](NC(=O)OC)C(C)C)[nH]c5cc4F)N3c3cnc(N4CCC(c5ccccc5)CC4)nc3)c(F)cc2[nH]1)C(C)C` [Example 3.46, methyl {(2S)-1-[(2S)-2-(6-fluoro-5-{(2R,5S)-5-{6-fluoro-2-[(2S)-1-{(2S)-2-[(methoxycarbonyl)amino]-3-methylbutanoyl}pyrrolidin-2-yl]-1H-benzimidazol-5-yl}-1-[2-(4-phenylpiperidin-1-yl)pyrimidin-5-yl]pyrrolidin-2-yl}-1H-benzimidazol-2-yl)pyrrolidin-1-yl]-3-methyl-1-oxobutan-2-yl}carbamate] was less than 0.1 nM; that for `COC(=O)N[C@H](C(=O)N1CCC[C@H]1c1nc2cc([C@H]3CC[C@@H](c4cc5nc([C@@H]6CCCN6C(=O)[C@@H](NC(=O)OC)C(C)C)[nH]c5cc4F)N3c3cnc(N4CCCCC4)nc3)c(F)cc2[nH]1)C(C)C` [Example 3.47, methyl {(2S)-1-[(2S)-2-(6-fluoro-5-{(2R,5S)-5-{6-fluoro-2-[(2S)-1-{(2S)-2-[(methoxycarbonyl)amino]-3-methylbutanoyl}pyrrolidin-2-yl]-1H-benzimidazol-5-yl}-1-[2-(piperidin-1-yl)pyrimidin-5-yl]pyrrolidin-2-yl}-1H-benzimidazol-2-yl)pyrrolidin-1-yl]-3-methyl-1-oxobutan-2-yl}carbamate] was less than 0.1 nM; that for `COC(=O)N[C@H](C(=O)N1CCC[C@H]1c1nc2cc([C@H]3CC[C@H](c4cc5nc([C@@H]6CCCN6C(=O)[C@@H](NC(=O)OC)[C@@H](C)OC)[nH]c5cc4F)N3c3cc(F)c(N4CCN(c5c(F)cccc5F)CC4)c(F)c3)c(F)cc2[nH]1)[C@@H](C)OC` [Example 3.48, methyl {(2S,3R)-1-[(2S)-2-{5-[(2R,5R)-1-{4-[4-(2,6-difluorophenyl)piperazin-1-yl]-3,5-difluorophenyl}-5-(6-fluoro-2-{(2S)-1-[N-(methoxycarbonyl)-O-methyl-L-threonyl]pyrrolidin-2-yl}-1H-benzimidazol-5-yl)pyrrolidin-2-yl]-6-fluoro-1H-benzimidazol-2-yl}pyrrolidin-1-yl]-3-methoxy-1-oxobutan-2-yl}carbamate] was less than 0.1 nM.
The value for `COC(=O)N[C@H](C(=O)N1CCC[C@H]1c1nc2cc([C@@H]3CC[C@@H](c4cc5nc([C@@H]6CCCN6C(=O)[C@@H](NC(=O)OC)[C@@H](C)OC)[nH]c5cc4F)N3c3cc(F)c(N4CCN(c5c(F)cccc5F)CC4)c(F)c3)c(F)cc2[nH]1)[C@@H](C)OC` [Example 3.49, methyl {(2S,3R)-1-[(2S)-2-{5-[(2S,5S)-1-{4-[4-(2,6-difluorophenyl)piperazin-1-yl]-3,5-difluorophenyl}-5-(6-fluoro-2-{(2S)-1-[N-(methoxycarbonyl)-O-methyl-L-threonyl]pyrrolidin-2-yl}-1H-benzimidazol-5-yl)pyrrolidin-2-yl]-6-fluoro-1H-benzimidazol-2-yl}pyrrolidin-1-yl]-3-methoxy-1-oxobutan-2-yl}carbamate] was less than 0.1 nM; that for `COC(=O)N[C@H](C(=O)N1CCC[C@H]1c1nc2cc([C@@H]3CC[C@@H](c4cc5nc([C@@H]6CCCN6C(=O)[C@@H](NC(=O)OC)C(C)C)[nH]c5cc4F)N3c3cc(F)c(N4CCN(c5c(F)cccc5F)CC4)c(F)c3)c(F)cc2[nH]1)C(C)C` [Example 3.50, methyl {(2S)-1-[(2S)-2-{5-[(2S,5S)-1-{4-[4-(2,6-difluorophenyl)piperazin-1-yl]-3,5-difluorophenyl}-5-{6-fluoro-2-[(2S)-1-{(2S)-2-[(methoxycarbonyl)amino]-3-methylbutanoyl}pyrrolidin-2-yl]-1H-benzimidazol-5-yl}pyrrolidin-2-yl]-6-fluoro-1H-benzimidazol-2-yl}pyrrolidin-1-yl]-3-methyl-1-oxobutan-2-yl}carbamate] was less than 0.1 nM.
As for `COC(=O)N[C@H](C(=O)N1CCC[C@H]1c1nc2cc([C@H]3CC[C@H](c4cc5nc([C@@H]6CCCN6C(=O)[C@@H](NC(=O)OC)C6CCOCC6)[nH]c5cc4F)N3c3cc(F)c(N4CCN(c5c(F)cccc5F)CC4)c(F)c3)c(F)cc2[nH]1)C1CCOCC1` [Example 3.51, dimethyl ([(2R,5R)-1-{4-[4-(2,6-difluorophenyl)piperazin-1-yl]-3,5-difluorophenyl}pyrrolidine-2,5-diyl]bis{(6-fluoro-1H-benzimidazole-5,2-diyl)(2S)pyrrolidine-2,1-diyl[(1S)-2-oxo-1-(tetrahydro-2H-pyran-4-yl)ethane-2,1-diyl]})biscarbamate], the figure is less than 0.1 nM; as for `COC(=O)N[C@H](C(=O)N1CCC[C@H]1c1nc2cc([C@H]3CC[C@H](c4cc5nc([C@@H]6CCCN6C(=O)[C@@H](NC(=O)OC)[C@@H](C)OC)[nH]c5cc4F)N3c3cc(F)c(N4CCC(c5ccc(F)cc5)CC4)c(F)c3)c(F)cc2[nH]1)[C@@H](C)OC` [Example 3.52, methyl {(2S,3R)-1-[(2S)-2-{5-[(2R,5R)-1-{3,5-difluoro-4-[4-(4-fluorophenyl)piperidin-1-yl]phenyl}-5-(6-fluoro-2-{(2S)-1-[N-(methoxycarbonyl)-O-methyl-L-threonyl]pyrrolidin-2-yl}-1H-benzimidazol-5-yl)pyrrolidin-2-yl]-6-fluoro-1H-benzimidazol-2-yl}pyrrolidin-1-yl]-3-methoxy-1-oxobutan-2-yl}carbamate], less than 0.1 nM; as for `COC(=O)N[C@H](C(=O)N1CCC[C@H]1c1nc2cc([C@H]3CC[C@H](c4cc5nc([C@@H]6CCCN6C(=O)[C@@H](NC(=O)OC)C6CCOCC6)[nH]c5cc4F)N3c3cc(F)c(N4CCC(c5ccc(F)cc5)CC4)c(F)c3)c(F)cc2[nH]1)C1CCOCC1` [Example 3.53, dimethyl ([(2R,5R)-1-{3,5-difluoro-4-[4-(4-fluorophenyl)piperidin-1-yl]phenyl}pyrrolidine-2,5-diyl]bis{(6-fluoro-1H-benzimidazole-5,2-diyl)(2S)pyrrolidine-2,1-diyl[(1S)-2-oxo-1-(tetrahydro-2H-pyran-4-yl)ethane-2,1-diyl]})biscarbamate], less than 0.1 nM.
Take `COC(=O)N[C@H](C(=O)N1CCC[C@H]1c1nc2ccc([C@H]3CC[C@H](c4ccc5nc([C@@H]6CCCN6C(=O)[C@@H](NC(=O)OC)C(C)C)[nH]c5c4)N3c3ccc(OC4CCCC4)c(F)c3)cc2[nH]1)C(C)C` [Example 4.1, methyl {(2S)-1-[(2S)-2-{6-[(2R,5R)-1-[4-(cyclopentyloxy)-3-fluorophenyl]-5-{2-[(2S)-1-{(2S)-2-[(methoxycarbonyl)amino]-3-methylbutanoyl}pyrrolidin-2-yl]-1H-benzimidazol-6-yl}pyrrolidin-2-yl]-1H-benzimidazol-2-yl}pyrrolidin-1-yl]-3-methyl-1-oxobutan-2-yl}carbamate]: the EC50 is less than 0.1 nM.
The value for `COC(=O)N[C@H](C(=O)N1CCC[C@H]1c1nc2cc([C@H]3CC[C@H](c4ccc5[nH]c([C@@H]6CCCN6C(=O)[C@@H](NC(=O)OC)C(C)C)nc5c4)N3c3ccc(N4CCCCC4)c(C)c3)ccc2[nH]1)C(C)C` [Example 4.2, methyl {(2S)-1-[(2S)-2-(5-{(2R,5R)-5-{2-[(2S)-1-{(2S)-2-[(methoxycarbonyl)amino]-3-methylbutanoyl}pyrrolidin-2-yl]-1H-benzimidazol-5-yl}-1-[3-methyl-4-(piperidin-1-yl)phenyl]pyrrolidin-2-yl}-1H-benzimidazol-2-yl)pyrrolidin-1-yl]-3-methyl-1-oxobutan-2-yl}carbamate] was less than 0.1 nM.
